The record followed here is PubChem BioAssay (NCI).

Among the test systems are HCT-116 colon; HT29 colon; MALME-3M melanoma; MDA-MB-435; MOLT-4 leukemia; RXF 393 renal; SK-MEL-2 melanoma; SK-MEL-28 melanoma; SNB-19 CNS; UACC-62 melanoma.
Holding throughout (assay): NCI-60 cell line screen, 48 h

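Assay format: 96-well plates, 48-hour exposure. GI50 = concentration required for 50% inhibition of growth. The concentration for full growth arrest is given as TGI.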

Regarding `Cc1ccc2c(=O)cc(-c3ccc(Cl)s3)[nH]c2n1`, the TGI is above 55.3 µM with HCT-116 colon; above 52.4 µM in the test with HT29 colon; above 100 µM in the test with MALME-3M melanoma; above 100 µM with MDA-MB-435; above 100 µM with MOLT-4 leukemia; above 25.7 µM in the test on RXF 393 renal. In addition, the TGI in the test with SK-MEL-2 melanoma, with SK-MEL-28 melanoma, with SNB-19 CNS and with UACC-62 melanoma was above 100 µM throughout.

Turning to `COC(=O)C1CCC(=S)N1C(=O)c1ccccc1` (centres undefined), the TGI was above 100 µM in the test with HCT-116 colon; above 100 µM with HT29 colon; above 100 µM in the test with MALME-3M melanoma; above 100 µM in the test on MDA-MB-435; 90.3 µM in the test on MOLT-4 leukemia; above 100 µM in the test on RXF 393 renal. Also, the TGI in the test on SK-MEL-2 melanoma, in the test on SK-MEL-28 melanoma, in the test with SNB-19 CNS and with UACC-62 melanoma was above 100 µM in each case.

With `CSCCC(N)C(=O)NCCNc1ccc(NCCNC(=O)C(N)CCSC)c2c1C(=O)c1ccccc1C2=O` (centres undefined), the TGI stood at 2.16 µM in the test with HCT-116 colon; 3.21 µM in the test on HT29 colon; 6.6 µM in the test on MALME-3M melanoma; 4.59 µM in the test with MDA-MB-435; 4.23 µM in the test on MOLT-4 leukemia; 4.73 µM in the test on RXF 393 renal. The TGI in the test with SK-MEL-2 melanoma came out at 7.59 µM; in the test with SK-MEL-28 melanoma, 3.17 µM; in the test with SNB-19 CNS it was 5.81 µM; in the test on UACC-62 melanoma it was 2.51 µM.

`C=C/C(C)=C\CC1[C@](C)(O)CC[C@H]2C(C)(C)C(=O)CC[C@]12C` (some centres undefined): the TGI is above 100 µM in the test with HCT-116 colon; above 100 µM with HT29 colon; above 100 µM in the test with MALME-3M melanoma; above 100 µM in the test with MDA-MB-435; 79.3 µM in the test with MOLT-4 leukemia; above 100 µM with RXF 393 renal. Further, the TGI with SK-MEL-2 melanoma, in the test with SK-MEL-28 melanoma, in the test on SNB-19 CNS and with UACC-62 melanoma was above 100 µM in each case.

Consider `Cc1cc(-c2nc3cc(F)ccc3s2)ccc1NC(=O)[C@@H](N)CCCCN`, for which the TGI in the test with HCT-116 colon is 7.67 µM; in the test on HT29 colon, 9.61 µM; with MALME-3M melanoma, 33.2 µM; in the test on MDA-MB-435 it was 3.69 µM; with MOLT-4 leukemia, 7.24 µM; in the test with RXF 393 renal it was 24.2 µM. For the same compound, the TGI was 8.76 µM in the test with SK-MEL-2 melanoma, 34.6 µM in the test with SK-MEL-28 melanoma, 28.9 µM with SNB-19 CNS and 23.4 µM in the test with UACC-62 melanoma.

`COc1ccc(N2C(=O)CC(=O)N(C(=O)COc3ccc(OCC(=O)N4C(=O)CC(=O)N(c5ccc(OC)cc5)C4=S)cc3)C2=S)cc1`: the TGI is 39.5 µM in the test with HCT-116 colon; above 100 µM in the test with HT29 colon; above 100 µM with MALME-3M melanoma; above 100 µM in the test on MDA-MB-435; above 100 µM in the test with MOLT-4 leukemia; 77.3 µM with RXF 393 renal. The TGI in the test with SK-MEL-2 melanoma, with SK-MEL-28 melanoma, in the test on SNB-19 CNS and in the test with UACC-62 melanoma was above 100 µM each time.

Regarding `CC1CCCC2(CC[N+](C)(CCC[N+](C)(C)C)CC2)C1` (centres undefined), the TGI in the test with HCT-116 colon, in the test with HT29 colon, in the test with MALME-3M melanoma, with MDA-MB-435, in the test with MOLT-4 leukemia and with RXF 393 renal was above 100 µM each time. The TGI in the test with SK-MEL-2 melanoma, in the test on SK-MEL-28 melanoma, with SNB-19 CNS and in the test with UACC-62 melanoma was above 100 µM in each case.

For the compound `CCCC(=O)NC(Nc1ccc(S(=O)(=O)Nc2cc(C)on2)cc1)(C(=O)OCC)C(F)(F)F` (centres undefined), the TGI in the test on HCT-116 colon, in the test with HT29 colon, in the test with MALME-3M melanoma, in the test on MDA-MB-435, with MOLT-4 leukemia and in the test on RXF 393 renal was above 100 µM each time. The TGI in the test on SK-MEL-2 melanoma, in the test with SK-MEL-28 melanoma, with SNB-19 CNS and in the test with UACC-62 melanoma was above 100 µM in each case.

As for `CC(=O)NCCC1CN(C(=O)/C=C/I)c2ccccc21` (centres undefined), the TGI in the test on HCT-116 colon is 14.3 µM; in the test with HT29 colon, 12.9 µM; in the test on MALME-3M melanoma, 26.3 µM; in the test on MDA-MB-435, 18.5 µM; with MOLT-4 leukemia it was above 64.6 µM; in the test with RXF 393 renal it was 10.8 µM. Moreover, the TGI in the test with SK-MEL-2 melanoma turned out to be 14.8 µM; in the test with SK-MEL-28 melanoma, 18.2 µM; with SNB-19 CNS it was 27.9 µM; with UACC-62 melanoma, 9.89 µM.

For the compound `CCNCCCn1c2c(c3ccc(Cl)cc3c1=O)C(=O)c1cc(OC)cnc1-2`, the GI50 with HCT-116 colon was 203 nM; with HT29 colon, 327 nM; in the test with MALME-3M melanoma, 1370 nM; with MDA-MB-435 it was 1150 nM; with MOLT-4 leukemia, 38.4 nM; with RXF 393 renal, 1030 nM. Also, the GI50 in the test on SK-MEL-2 melanoma was 12.5 µM; in the test on SK-MEL-28 melanoma, 1920 nM; with SNB-19 CNS, 585 nM; in the test with UACC-62 melanoma, 532 nM. The TGI turned out to be 1.56 µM in the test on HCT-116 colon; 2.03 µM in the test with HT29 colon; 3.12 µM in the test with MALME-3M melanoma; 2.55 µM with MDA-MB-435; 1.62 µM with MOLT-4 leukemia; 2.43 µM with RXF 393 renal. Besides, the TGI worked out at 29.2 µM with SK-MEL-2 melanoma, 4.54 µM with SK-MEL-28 melanoma, 2.66 µM with SNB-19 CNS and 21.4 µM in the test on UACC-62 melanoma.

For `C[C@H](NC(=O)C(Cc1ccccc1)(Cc1ccc(O)cn1)NC(=O)c1ccccc1)c1ccccc1` (some centres undefined), the TGI in the test with HCT-116 colon was determined as 28.7 µM; in the test with HT29 colon, 33.4 µM; with MALME-3M melanoma it was 37.6 µM; in the test on MDA-MB-435 it was 37.3 µM; in the test on MOLT-4 leukemia, 84.9 µM; with RXF 393 renal, 28.2 µM. In addition, the TGI in the test on SK-MEL-2 melanoma is 27.6 µM; with SK-MEL-28 melanoma, 38.3 µM; in the test with SNB-19 CNS, 39.4 µM; in the test with UACC-62 melanoma, 26.5 µM.

For the compound `C[N+](C)(C)c1ccc(C(N)C(=O)O)cc1` (centres undefined), the TGI in the test with HCT-116 colon, in the test with HT29 colon, in the test on MALME-3M melanoma, in the test on MDA-MB-435, in the test with RXF 393 renal and in the test with SK-MEL-2 melanoma was above 100 µM in each case. Moreover, the TGI with SK-MEL-28 melanoma, with SNB-19 CNS and in the test with UACC-62 melanoma was above 100 µM each time.
